Data as given in patent publication US20120022142A1, “RNA Interference Mediated Inhibition of Signal Transducer and Activator of Transcription 1 (STAT1) Gene Expression Using Short Interfering Nucleic Acid (siNA)” (Merck Sharp & Dohme Corp., priority 2009, published 2012).
[invAb] = inverted abasic unit; m = 2'-O-methyl; r = 2'-OH (RNA); f = 2'-fluoro

Key:
STAT1 mRNA [1] = experiment: Efficacy (% KD) and potency (IC50) of STAT1 mRNA knockdown of siNA leads in A549 cells; assay type: cell-based, human; settings: for Human (A549) avg % KD: STAT1 mRNA, 30 nM siNA, at least three experiments
Experimental: (§1) A549 cells were plated in 6-well plates at final counts of 70,000 cells/well in 2 ml of complete growth media (Ham's F12, Cellgro Cat# 10-080-CV+10% FBS). Transfection was performed using 2.5 uL of RNAiMax (Invitrogen Cat# 13778-150) per well. Final concentration of siNAs was 30, 3, 0.3, 0.03, 0.003, and 0.0003 nM done in duplicate. The siNAs were incubated for 24-72 hours. The duplicate samples were pooled to prepare protein lysates and RNA using the “PARIS” Protein and RNA Isolation System from Ambion, Cat# 1921. The total protein in the lysates was measured using a Bradford Dye Reagent (Bio-Rad, Cat# 500-0205).SDS-PAGE/Western Blotting was performed on the on the protein samples and RT-PCR on the RNA samples.
(§2) A series of probes and primers were used to detect the various mRNA transcripts of the genes of β-Actin (human cell line only), and of STAT1 and GAPDH in mouse and human cell lines. All Taqman probes and primers for the experiments here-in described were supplied as pre-validated sets by Applied Biosystems, Inc. (see Table 2).
(§3) The assays were performed on an ABI 7900 instrument, according to the manufacturer's instructions.
(§4) The expression level of the gene of interest and % knock-down was calculated using Comparative Ct method: […]
(§5) All calculations of IC50s were performed using SigmaPlot 10.0 software. The data were analyzed using the sigmoidal dose-response (variable slope) equation for simple ligand binding. In all of the calculations of the % knock-down, the calculation was made relative to the normalized level of expression of the gene of interest in the samples treated with the non-targeting control (Ctrl siNA) unless otherwise indicated.
(§6) Certain siNAs were further analyzed for efficacy in human A549 cells and mouse NIH3T3 cells. Percent KD/reduction is represented as mean±S.D. IC50 is represented as mean±S.D. The date is summarized from at least three separate experiments and within each experiment, the data point is calculated from an n=2. The final concentration of siNA used was 30 nM.

STAT1 protein = experiment: STAT1 Western Blot in transfected A549 cells; assay type: cell-based, human; settings: % protein remaining (STAT1α and STAT1β together), A549, 30 nM; for Protein 24 hr: 24 hr post-transfection; for Protein 48 hr: 48 hr post-transfection; for Protein 72 hr: 72 hr post-transfection
Experimental: as §1
The protein source for the Western Blot experiments were from transfection of A549 cells in a 6 well plate, as described above.
Protein samples were diluted 1:1 in 2× Laemmli buffer with 5% β-mercapto-ethanol and incubated at 95° C. for 5 minutes. 10 ug of protein was loaded in each lane of 7.5% Tris-HCl gel. One lane was designated for MagicMark Protein Standard (Invitrogen # LC5602). Another lane was designated for a Precision Plus Protein Standard (Bio-Rad, Cat# 161-0374). The gel was run at 100V for approximately 2 hours. Protein was transferred to a PVDF membrane at 100V for 60 minutes. Once the transfer was finished, the membrane was blocked in 1% Casein in PBS (BioRad Cat#161-0783) for 1 hour on a plate rocker at room temperature followed by the overnight incubation at 4° C. with STAT1 primary antibody (Clontech, Cat# 610185) diluted 1:500 in 1% Casein in PBS. On the next day, the blot was washed 4×5 minutes in PBST (0.1% Tween-20 in PBS) solution and incubated for 30 minutes at room temperature with goat anti-mouse secondary antibody (Pierce Cat #3 31430) diluted 1:20,000 in 1% Casein in PBS. Then, the blot was washed 4×5 minutes with PBST, rinsed with PBS, and incubated for 1 minute with ECL Western Blotting Substrate (Pierce Biotechnology, Cat# 32106). The bands were visualized on the Bio-Rad VersaDoc Imager.
The level of protein was quantified using the Bio-Rad VersaDoc Imager according to the protocols of that piece of equipment. A pixel count was performed in each lane using an area of identical size. Each sample was then compared to the appropriate control treated sample and converted to a percent of protein remaining compared to control.
An assessment of the level of mRNA at each timepoint was also made and protein samples from the treated cells were used in Western blots with an α-STAT1 antibody. (Clontech, Cat# 610185) and anti-Tubulin Ab (Sigma # T6199) in human A549 cells. Cells were transfected 24, 48 or 72 hours before harvesting total protein and the final concentration of siNAs was 30 nM. Lanes were loaded with 10 ug of total protein. Quantification was done of both the STAT1α and the STAT1β proteins together. All the siNAs tested reduced STAT1 protein at each of the tested timepoints, with the highest degree of protein reduction being observed at 72 hours post-transfection.

STAT1 mRNA [2] = experiment: Efficacy (% KD) and potency (IC50) of STAT1 mRNA knockdown of siNA leads in NIH3T3 cells; assay type: cell-based, mouse; settings: mean ± S.D.; for IC50: STAT1 mRNA knockdown, read-out: Mouse (NIH3T3) IC50; for Mouse (NIH3T3) avg % KD: STAT1 mRNA, 30 nM siNA, at least three experiments
Experimental: NIH 3T3 (mouse; ATCC cat# CRL-1658): Cells were cultured at 37° C. in the presence of 5% CO2 and grown in Dulbecco's modified Eagle's medium (DMEM) with 4 mM L-glutamine adjusted to contain 1.5 g/L sodium bicarbonate and 4.5 g/L glucose and supplemented with fetal bovine serum at a final concentration of 10%, 100 μg/mL of streptomycin, and 100 U/mL penicillin.
as §2, §3, §4, §5, §6

[3] = A549 cells, Table 5, read-out: IC50 vs. STAT1 mRNA
[4] = STAT1 mRNA knockdown, mean ± S.D., read-out: Human (A549) IC50

## 25368-DC: STAT1 siNA duplex, human target site 782; modified strands SEQ ID NO: 73 and 74 (chain 1 GUAAAGUCAGAAAUGUGAATT; chain 2 UUCACAUUUCUGACUUUACUU; chain 1: DNA at AGT, 2'-fluoro at CU, [invAb] at 5' end, 3' end, backbone not given here; chain 2: sugars from the 5' end rrrmfmfffffmmffffmfmm, backbone not given here)
STAT1 mRNA [1]; [3]
  IC50: 0.097 ± 0.018 nM
STAT1 mRNA [1]; [4]
  IC50: 0.01 ± 0.0064 nM
STAT1 mRNA [1]; mean ± S.D.
  Human (A549) avg % KD: 89.1 ± 1.8%
STAT1 protein
  Protein 24 hr: 80%
  Protein 48 hr: 54%
  Protein 72 hr: 20%
STAT1 mRNA [2]
  IC50: 0.072 ± 0.023 nM
  Mouse (NIH3T3) avg % KD: 89.9 ± 6.0%

## 25372-DC: STAT1 siNA duplex, human target site 968; modified strands SEQ ID NO: 81 and 82 (chain 1 UUGACAAUAAGAGAAAGGATT; chain 2 UCCUUUCUCUUAUUGUCAAUU; chain 1: DNA at AGT, 2'-fluoro at CU, [invAb] at 5' end, 3' end, backbone not given here; chain 2: sugars from the 5' end rrrffffffffmffmffmmmm, backbone not given here)
STAT1 mRNA [1]; [3]
  IC50: 0.032 ± 0.014 nM
STAT1 mRNA [1]; [4]
  IC50: 0.025 ± 0.009 nM
STAT1 mRNA [1]; mean ± S.D.
  Human (A549) avg % KD: 86.0 ± 2.0%
STAT1 protein
  Protein 24 hr: 76%
  Protein 48 hr: 54%
  Protein 72 hr: 29%
STAT1 mRNA [2]
  IC50: 0.182 ± 0.051 nM
  Mouse (NIH3T3) avg % KD: 87.3 ± 7.2%

## 25369-DC: STAT1 siNA duplex, human target site 602; modified strands SEQ ID NO: 75 and 76 (chain 1 GGAAAAGCAAGCGUAAUCUTT; chain 2 AGAUUACGCUUGCUUUUCCUU; chain 1: DNA at AGT, 2'-fluoro at CU, [invAb] at 5' end, 3' end, backbone not given here; chain 2: sugars from the 5' end rrrffmfmfffmfffffffmm, backbone not given here)
STAT1 mRNA [1]; [3]
  IC50: 0.012 ± 0.002 nM
STAT1 mRNA [1]; [4]
  IC50: 0.097 ± 0.018 nM
STAT1 mRNA [1]; mean ± S.D.
  Human (A549) avg % KD: 88.8 ± 3.1%
STAT1 protein
  Protein 24 hr: 85%
  Protein 48 hr: 58%
  Protein 72 hr: 38%
STAT1 mRNA [2]
  IC50: 0.58 ± 0.109 nM
  Mouse (NIH3T3) avg % KD: 60.8 ± 3.5%

## 25367-DC: STAT1 siNA duplex, human target site 966; modified strands SEQ ID NO: 71 and 72 (chain 1 GCUUGACAAUAAGAGAAAGTT; chain 2 CUUUCUCUUAUUGUCAAGCUU; chain 1: DNA at AGT, 2'-fluoro at CU, [invAb] at 5' end, 3' end, backbone not given here; chain 2: sugars from the 5' end rrrffffffmffmffmmmfmm, backbone not given here)
STAT1 mRNA [1]; [3]
  IC50: 0.01 ± 0.0064 nM
STAT1 mRNA [1]; [4]
  IC50: 0.032 ± 0.014 nM
STAT1 mRNA [1]; mean ± S.D.
  Human (A549) avg % KD: 88.6 ± 1.1%
STAT1 protein
  Protein 24 hr: 83%
  Protein 48 hr: 53%
  Protein 72 hr: 30%
STAT1 mRNA [2]
  IC50: 0.16 ± 0.034 nM
  Mouse (NIH3T3) avg % KD: 84.6 ± 2.6%

## 25351-DC: STAT1 siNA duplex, human target site 2249; modified strands SEQ ID NO: 39 and 40 (chain 1 CCUACACGAAGAAAGAACUTT; chain 2 AGUUCUUUCUUCGUGUAGGUU; chain 1: DNA at AGT, 2'-fluoro at CU, [invAb] at 5' end, 3' end, backbone not given here; chain 2: sugars from the 5' end rrrfffffffffmfmfmmmmm, backbone not given here)
STAT1 mRNA [1]; [3]
  IC50: 0.025 ± 0.009 nM
STAT1 mRNA [1]; [4]
  IC50: 0.012 ± 0.002 nM
STAT1 mRNA [1]; mean ± S.D.
  Human (A549) avg % KD: 91.7 ± 0.1%
STAT1 protein
  Protein 24 hr: 87%
  Protein 48 hr: 48%
  Protein 72 hr: 20%
STAT1 mRNA [2]
  IC50: 0.248 ± 0.086 nM
  Mouse (NIH3T3) avg % KD: 85.1 ± 3.5%
